The record followed here is patent publication US8476275B2, “N-[piperazinyl hetaryl]arylsufonamide compounds with affinity for the dopamine D3 receptor” (Abbott GmbH & Co. KG, priority 2003, dated 2013).

Assay [1] addresses T1, human dopamine D3 receptors (Homo sapiens, UniProt P35462).
T1 construct: expressed in transfected cells
Description: Dopamine D3 receptor binding, displacement of [125I]-iodosulpride. The note with it: membranes of HEK-293 cells stably expressing human D3 receptor; 0.1 nM [125I]-iodosulpride; 25° C., 60 minutes. The protocol: (§1) The substance to be tested was either dissolved in methanol/Chremophor® (BASF-AG) or in dimethyl sulfoxide and then diluted with water to the desired concentration.
(§2) Each assay mixture was run in triplicate.
The incubation buffer contained 50 mM tris, 120 mM NaCl, 5 mM KCl, 2 mM CaCl2, 2 mM MgCl2 and 0.1% bovine serum albumin, 10 μM quinolone and 0.1% ascorbic acid (prepared fresh daily). The buffer was adjusted to pH 7.4 with HCl.
(§3) Measurement and Analysis:
(§4) After having been incubated at 25° C. for 60 minutes, the assay mixtures were filtered through a Whatman GF/B glass fiber filter under vacuum using a cell collecting device. The filters were transferred to scintillation viols using a filter transfer system. After 4 ml of Ultima Gold® (Packard) have been added, the samples were shaken for one hour and the radioactivity was then counted in a Beta-Counter (Packard, Tricarb 2000 or 2200CA). The cpm values were converted into dpm using a standard quench series and the program belonging to the instrument.
(§5) The inhibition curves were analyzed by means of iterative nonlinear regression analysis using the Statistical Analysis System (SAS) which is similar to the “LIGAND” program described by Munson and Rodbard.
Background: In a radioligand displacement assay an active substance lowers the binding of a labelled ligand.

In assay [2] the target is T2, human dopamine D2L receptors (long isoform) (Homo sapiens, UniProt P14416).
T2 construct: expressed in transfected cells
Kind of assay: Dopamine D2L receptor binding, displacement of [125I] iodospiperone. The note with it: ratio, HEK-293 membranes, 0.01 nM [125I] iodospiperone. The protocol: as §1, §2
The incubation buffer contained 50 mM tris, 120 mM NaCl, 5 mM KCl, 2 mM CaCl2, 2 mM MgCl2 and 0.1% bovine serum albumin. The buffer was adjusted to pH 7.4 with HCl.
as §3, §4, §5

T2 sequence (P14416 whole entry, canonical isoform): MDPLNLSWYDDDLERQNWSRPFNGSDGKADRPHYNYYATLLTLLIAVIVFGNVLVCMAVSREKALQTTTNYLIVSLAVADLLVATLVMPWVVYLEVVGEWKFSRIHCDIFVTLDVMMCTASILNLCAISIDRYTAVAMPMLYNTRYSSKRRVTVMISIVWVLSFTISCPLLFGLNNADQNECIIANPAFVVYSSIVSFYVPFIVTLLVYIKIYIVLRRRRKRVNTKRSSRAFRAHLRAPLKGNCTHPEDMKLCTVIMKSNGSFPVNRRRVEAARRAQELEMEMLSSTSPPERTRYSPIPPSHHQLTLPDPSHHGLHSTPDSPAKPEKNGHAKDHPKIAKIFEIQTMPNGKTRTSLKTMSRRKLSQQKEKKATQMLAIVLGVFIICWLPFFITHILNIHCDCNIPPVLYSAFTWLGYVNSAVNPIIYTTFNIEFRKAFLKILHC
T1 sequence (P35462 whole entry): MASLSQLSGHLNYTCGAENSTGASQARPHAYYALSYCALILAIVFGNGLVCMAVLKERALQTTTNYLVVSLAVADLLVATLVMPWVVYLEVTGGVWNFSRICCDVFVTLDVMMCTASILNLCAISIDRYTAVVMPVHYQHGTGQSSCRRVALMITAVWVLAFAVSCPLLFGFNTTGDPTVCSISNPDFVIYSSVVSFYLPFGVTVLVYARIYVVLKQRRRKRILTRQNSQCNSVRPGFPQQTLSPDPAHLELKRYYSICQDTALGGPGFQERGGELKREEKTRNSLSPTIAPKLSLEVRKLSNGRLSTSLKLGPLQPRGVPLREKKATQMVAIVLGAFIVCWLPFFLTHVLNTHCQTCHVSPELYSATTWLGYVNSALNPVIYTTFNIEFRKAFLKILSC

As a reminder, the Ki is a dissociation constant, usually derived from enzyme kinetics or from competition with a known ligand. A lower Ki goes with tighter binding. With “N-[2-(4-Allylpiperazin-1-yl)pyridin-5-yl]-4-(N-pyrrolidinyl)benzene-sulfonamide fumarate [Example 42]”, in assay [1], the Ki is 5.3 nM. Moreover, the “Selectivity vs. D2L” value in assay [2] stood at 33.
